Holding throughout (type): physicochemical
A short description of data set [1]: Water solubility of crystalline forms. Particulars: for Water solubility: Form B value according to literature findings and experimental data, Form M at the same conditions.
A short description of data set [2]: Moisture sorption analysis (Dynamic Vapour Sorption). Conditions: result in words. The method, then:
Water Vapour Sorption isotherms were obtained using a Dynamic Vapour Sorption apparatus (model: DVS—Advantage, supplier: Surface Measurement Systems Limited). The DVS apparatus consists of an ultra-microbalance housed inside a temperature-controlled cabinet. The sample was placed into a DVS sample pan under a stream of nitrogen (200 sccm) at 25° C. The humidity was increased ramping in 10% RH (relative humidity) steps from close to 0% RH to 90% RH (sorption phase). Next the humidity was decreased in a similar fashion for the desorption phase. The sample was held at each RH step for mass stabilization (dm/dt 0.02%/min) but not less than 10 minutes. Two cycles of sorption and desorption were investigated.

Data set [3] can be described thus: Dissolution studies of tablets, paddle method. Particulars: at 30 minutes. The method, then:
Dissolution studies were performed using a Hanson SR8PLUS dissolution apparatus, according to European Pharmacopoeia apparatus, paddle method. The samples were tested in 900 mL pH 6.8 with 0.3% SLS at 37.0° C.+/−0.5° C. and the paddle rotation speed was set at 75 rpm. Dissolution study was conducted for 60 min and samples were analyzed using HPLC method.

`CCOc1cc([C@@H](CS(C)(=O)=O)N2C(=O)c3cccc(NC(C)=O)c3C2=O)ccc1OC` [Form B, N-[2-[(1S)-1-(3-ethoxy-4-methoxyphenyl)-2-(methylsulfonyl)ethyl]-1,3-dioxo-2,3-dihydro-1H-isoindol-4-yl]acetamide, reference compound]: the Water solubility in data set [1] was 7 to 12 µg/mL.
Compound `CCOc1cc([C@@H](CS(C)(=O)=O)N2C(=O)c3cccc(NC(C)=O)c3C2=O)ccc1OC` [Form M, N-[2-[(1S)-1-(3-ethoxy-4-methoxyphenyl)-2-(methylsulfonyl)ethyl]-1,3-dioxo-2,3-dihydro-1H-isoindol-4-yl]acetamide] showed a Water solubility in data set [1] of 29 µg/mL. Moreover, the “Water solubility of Form M relative to Form B (times greater)” value in data set [1] (same conditions) was ~3 times. Also, in data set [2], the Hygroscopicity entry was “substantially non-hygroscopic”.
For `CCOc1cc([C@@H](CS(C)(=O)=O)N2C(=O)c3cccc(NC(C)=O)c3C2=O)ccc1OC` [Form N, N-[2-[(1S)-1-(3-ethoxy-4-methoxyphenyl)-2-(methylsulfonyl)ethyl]-1,3-dioxo-2,3-dihydro-1H-isoindol-4-yl]acetamide], in data set [2], the Hygroscopicity entry is given as “substantially non-hygroscopic” and the “Stability with respect to humidity” value is given as “stable with respect to humidity”. Further, in data set [3], the “Higher dissolution rate compared with prior art Form B” value was “more than 50%”.

The record behind these values is US10774042B2, “Crystalline forms of apremilast” (ZAKLADY FARMACEUTYCZNE POLPHARMA SA, priority 2016, dated 2020).
